The values that follow come from patent US9212205B2, “Nucleic acid binding compounds and methods of use” (University of Rochester, priority 2007, dated 2015).

Usually Kd stands for the concentration at which binding is half-saturated.

The target of the test is HIV-1 frameshift-inducing RNA stem-loop (SEQ ID NO:1). The test can be described thus: Fluorescence titration of Cy-3 labeled HIV-1 RNA stem-loop. The test is classed as binding. To be noted: stem-loop 4 × 10^−7 M, PBS buffer, 25° C. How it is done:
The binding of dicarba analogs to the HIV-1 frameshift-inducing RNA was measured using fluorescence spectroscopy. Fluorescence titrations were performed on a Varian Cary eclipse fluorescence spectrophotometer using 1 cm path-length quartz fluorescence cell. The solution of Cy-3 labeled HIV-1 RNA stem-loop in PBS buffer (400 μL, 400 nM) was taken in the cell and excited with a wavelength of 550 nm. A PMT voltage of 715 V was used for collecting the fluorescence data and the emission spectrum was collected from 555 to 600 nm wavelength range. The ligand solution in PBS buffer was added to the target RNA in the cell in either 2 or 4 μL increments and was allowed to equilibrate for 10 minutes before recording the emission spectrum. Statistical analysis of the data was carried out using Origin 7 (OriginLab corporation). Binding constants were determined by fitting the data to one-site binding model equation.
A 5′-Cy3 labeled upper stem-loop of HIV-1 RNA (SEQ ID NO:1) was titrated with increasing amount of the dicarba analogs in a phosphate buffer (PBS, pH 7.4) using the same protocol to that described in Example 3 above. The fluorescence intensity of the labeled RNA stem-loop decreased as a function of the ligand concentration. […] Normally, one would expect a greater difference between the affinities of the two isomers.
To further evaluate the binding selectivity of dicarba analogs to the frameshift-inducing stem-loop, fluorescence titrations were repeated in the presence of twenty-fold excess concentration of yeast tRNA. […] In an interesting result it was discovered that the monomeric compound (5) also bound to the HIV-1 RNA stem-loop with similar affinity as that of the other analogs, but the binding affinity was diminished in the presence of tRNA. […] Quinoline is a known intercalator of nucleotide bases and has the capability to interact with RNA non-specifically. But it is the peptidic part of the molecule in ligands 5-5 E and 5-5 Z that imparts specificity to the interaction between the ligand and the RNA stem-loop. The peptidic part on monomer 5 is insufficient to impart specificity to the interaction as evident from the results.

Where [1] appears, read: 8 μM tRNA (twenty-fold excess), read-out: Binding Affinity (Kd) in the presence of excess yeast tRNA.
[2] abbreviates: fluorescence titration, read-out: Binding Affinity (Kd).

Like-named read-outs stand apart in the source and are kept apart here.

As to `CCc1nc2ccccc2cc1C(=O)N[C@@H](C/C=C/C[C@H](NC(=O)c1cc2ccccc2nc1CC)C(=O)N1CCC[C@H]1C(=O)N[C@@H](Cc1ccccc1)C(=O)NCCCN)C(=O)N1CCC[C@H]1C(=O)N[C@@H](Cc1ccccc1)C(=O)NCCCN` [dimer 5-5 E], the Kd under setting [1] is 450 ± 90 nM and the Kd under setting [2] came out at 410 ± 20 nM.
The like results for `CCc1nc2ccccc2cc1C(=O)N[C@@H](C/C=C\C[C@H](NC(=O)c1cc2ccccc2nc1CC)C(=O)N1CCC[C@H]1C(=O)N[C@@H](Cc1ccccc1)C(=O)NCCCN)C(=O)N1CCC[C@H]1C(=O)N[C@@H](Cc1ccccc1)C(=O)NCCCN` [dimer 5-5 Z] were, in that order, 290 nM and 240 ± 50 nM.
Turning to `C=CC[C@H](NC(=O)c1cc2ccccc2nc1CC)C(=O)N1CCC[C@H]1C(=O)N[C@@H](Cc1ccccc1)C(=O)NCCCN` [monomer 5], the “Binding Affinity (Kd) in the presence of excess yeast tRNA” value (8 μM tRNA (twenty-fold excess)) was “No binding”. Also, the equilibrium dissociation constant (Kd) under setting [2] was 370 ± 20 nM.
